# Measurements reported in article PMC10016662 (PLOS Pathogens, 2023).
# Where two headings read alike, the source gives them in different places.
# Biological target: T1, HRTV Gc (Heartland virus, UniProt J3WAX0)
# T1 construct: gene GP
# Assay: biochemical
# Format: binding
# T1 sequence (J3WAX0 567-999 limits assumed): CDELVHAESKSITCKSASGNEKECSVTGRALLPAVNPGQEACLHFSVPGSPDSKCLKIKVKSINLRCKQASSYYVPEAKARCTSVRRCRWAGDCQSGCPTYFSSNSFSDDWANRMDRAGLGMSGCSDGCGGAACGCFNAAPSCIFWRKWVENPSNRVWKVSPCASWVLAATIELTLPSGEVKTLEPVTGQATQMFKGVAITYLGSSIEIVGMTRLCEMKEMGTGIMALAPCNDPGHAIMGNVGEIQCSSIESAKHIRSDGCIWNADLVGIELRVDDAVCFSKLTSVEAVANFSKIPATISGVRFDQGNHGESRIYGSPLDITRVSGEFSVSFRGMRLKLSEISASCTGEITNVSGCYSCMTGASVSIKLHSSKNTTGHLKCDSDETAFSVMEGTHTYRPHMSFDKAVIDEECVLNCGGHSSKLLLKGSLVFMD
Compound,Kd,Kd (read-out: KD)
CCCCCCCC/C=C\CCCCCCCC(=O)OC[C@H](COP(=O)([O-])OCC[N+](C)(C)C)OC(=O)CCCCCCC/C=C\CCCCCCCC [DOPC],2100 nM,–
GalCer,–,600 nM
GlcCer,–,< 1 nM
